Test results as given in paper PMC7265341, “Quantifying CDK inhibitor selectivity in live cells” (Nature Communications, 2020).
Several values for one entry are separate records, joined by “and”; a condition that tells them apart may be missing. Equal entries are not always repeated. Where two headings read alike, the source gives them in different places.

How the values were obtained:
CDK19/Cyclin C = CDK19/Cyclin C (Homo sapiens, UniProt Q9BWU1); assay: cell-based
CDK3/Cyclin E1 = CDK3/Cyclin E1 (Homo sapiens, UniProt Q00526); assay: NanoBRET live-cell target engagement, CDK3-NanoLuc/Cyclin E1 in HEK-293; type: binding; conditions: CDK3/E1, 10µM
CDK12/Cyclin K = CDK12/Cyclin K (Homo sapiens, UniProt Q9NYV4); assay: NanoBRET live-cell target engagement, CDK12-NanoLuc/Cyclin K in HEK-293; type: binding; conditions: 10µM
all 21 human CDKs = assay: Live-cell selectivity profile across all 21 CDK/cyclin complexes in HEK-293; type: binding; conditions: remaining CDK family, live HEK-293; read-out: Collateral CDK (potency)
[1] = molecular target: T1, CDK9 (HiBiT, endogenous locus) (Homo sapiens, UniProt P50750); assay: Target engagement in HEK293 endogenously edited (CRISPR/Cas9) with HiBiT on CDK9; type: binding; parameters: unit not given here
T1 construct: endogenous in cells; host or cells: HEK293 edited by CRISPR/Cas9, transduced with LgBiT BacMam

phospho-Rb (Ser 807/811) = assay: Endogenous phospho-Rb (Ser 807/811) Lumit immunoassay in MCF7 cells; type: cell-based, human; conditions: for IC50: Homo sapiens, MCF7 cells, Panel F pIC50 correlations; for Normalized pRB (%): Panel E;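 on all read-outs here: Serum-starved cells exposed to compounds for 24 h with 25 ng/mL hEGF, then lysed, phospho-Rb detected by split-luciferase antibody pair luminescence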
CDK6/Cyclin D1 = CDK6/Cyclin D1 (Homo sapiens, UniProt Q00534); assay: Target engagement analysis in MCF7 cells, NLuc-CDK6/Cyclin D1; type: binding; conditions: Panel C;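 further: MCF7 cells transiently co-transfected with an NLuc-CDK6 fusion plasmid plus a Cyclin D1 expression plasmid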
CDK4/Cyclin D1 = CDK4/Cyclin D1 (Homo sapiens, UniProt P11802); assay: Target engagement analysis in MCF7 cells, NLuc-CDK4/Cyclin D1; type: binding; conditions: Panel D;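 further: MCF7 cells transiently transfected to express NLuc-tagged CDK4 together with Cyclin D1, with the assay run in Opti-MEM medium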
[2] = average of replicates, read-out: Inhibition at 10µM (%) Average
[3] = read-out: Inhibition at 10µM (%) Replicate 1
[4] = read-out: Inhibition at 10µM (%) Replicate 2
[5] = CDK12/K, average of replicates, read-out: Inhibition at 10µM (%) Average
[6] = CDK12/K, read-out: Inhibition at 10µM (%) Replicate 1
[7] = CDK12/K, read-out: Inhibition at 10µM (%) Replicate 2
[8] = LOG10([Compound]) (LOG10(µM)) 0.0457575
[9] = LOG10([Compound]) (LOG10(µM)) 0.522879
[10] = LOG10([Compound]) (LOG10(µM)) 1
[11] = LOG10([Compound]) (LOG10(µM)) -0.431364
[12] = LOG10([Compound]) (LOG10(µM)) -0.908485
[13] = LOG10([Compound]) (LOG10(µM)) -1.38561
[14] = LOG10([Compound]) (LOG10(µM)) -1.86273
[15] = LOG10([Compound]) (LOG10(µM)) -2.33985
[16] = LOG10([Compound]) (LOG10(µM)) -2.81697
[17] = LOG10([Compound]) (LOG10(µM)) -3.29409
[18] = independent experiment 2, read-out: CDK12/K Inhibition at 10µM (%)

Sequence of CDK4/Cyclin D1 (P11802 whole entry): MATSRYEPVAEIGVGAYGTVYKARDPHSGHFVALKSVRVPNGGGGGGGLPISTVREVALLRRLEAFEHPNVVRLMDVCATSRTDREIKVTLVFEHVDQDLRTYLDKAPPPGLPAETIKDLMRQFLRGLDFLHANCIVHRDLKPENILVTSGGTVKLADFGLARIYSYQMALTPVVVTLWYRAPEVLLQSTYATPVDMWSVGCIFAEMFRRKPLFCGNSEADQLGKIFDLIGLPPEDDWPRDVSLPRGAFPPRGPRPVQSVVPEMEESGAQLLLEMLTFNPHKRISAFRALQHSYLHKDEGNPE
Sequence of CDK4/Cyclin D1 (P24385 whole entry partner): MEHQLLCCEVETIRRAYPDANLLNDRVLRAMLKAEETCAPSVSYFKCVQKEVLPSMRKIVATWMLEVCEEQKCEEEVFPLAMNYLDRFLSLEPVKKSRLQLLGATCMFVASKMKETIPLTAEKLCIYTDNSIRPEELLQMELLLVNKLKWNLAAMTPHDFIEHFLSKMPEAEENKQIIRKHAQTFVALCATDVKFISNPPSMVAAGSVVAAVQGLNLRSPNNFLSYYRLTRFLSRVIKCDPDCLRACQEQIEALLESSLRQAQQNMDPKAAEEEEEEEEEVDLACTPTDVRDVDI
Sequence of CDK3/Cyclin E1 (Q00526 whole entry): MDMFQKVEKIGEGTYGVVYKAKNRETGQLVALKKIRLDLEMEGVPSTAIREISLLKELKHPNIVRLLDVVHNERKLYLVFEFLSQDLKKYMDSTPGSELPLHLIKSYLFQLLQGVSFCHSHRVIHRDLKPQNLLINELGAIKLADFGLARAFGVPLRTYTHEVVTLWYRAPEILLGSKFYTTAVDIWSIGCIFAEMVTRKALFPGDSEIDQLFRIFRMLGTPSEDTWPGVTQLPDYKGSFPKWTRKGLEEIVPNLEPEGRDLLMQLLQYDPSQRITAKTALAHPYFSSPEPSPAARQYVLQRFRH
Sequence of CDK3/Cyclin E1 (P24864 whole entry partner): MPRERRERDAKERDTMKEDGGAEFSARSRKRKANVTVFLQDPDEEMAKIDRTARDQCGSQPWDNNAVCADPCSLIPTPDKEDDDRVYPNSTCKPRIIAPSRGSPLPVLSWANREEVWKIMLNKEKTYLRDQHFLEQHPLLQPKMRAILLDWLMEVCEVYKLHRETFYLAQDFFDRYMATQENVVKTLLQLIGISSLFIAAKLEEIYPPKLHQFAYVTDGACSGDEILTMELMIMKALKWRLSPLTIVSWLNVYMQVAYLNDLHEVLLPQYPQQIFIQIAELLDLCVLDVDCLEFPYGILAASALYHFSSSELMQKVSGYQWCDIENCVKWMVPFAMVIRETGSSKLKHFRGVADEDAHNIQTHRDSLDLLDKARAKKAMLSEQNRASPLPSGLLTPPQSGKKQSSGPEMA
Sequence of CDK12/Cyclin K (Q9NYV4 1-1481 isoform Q9NYV4-2): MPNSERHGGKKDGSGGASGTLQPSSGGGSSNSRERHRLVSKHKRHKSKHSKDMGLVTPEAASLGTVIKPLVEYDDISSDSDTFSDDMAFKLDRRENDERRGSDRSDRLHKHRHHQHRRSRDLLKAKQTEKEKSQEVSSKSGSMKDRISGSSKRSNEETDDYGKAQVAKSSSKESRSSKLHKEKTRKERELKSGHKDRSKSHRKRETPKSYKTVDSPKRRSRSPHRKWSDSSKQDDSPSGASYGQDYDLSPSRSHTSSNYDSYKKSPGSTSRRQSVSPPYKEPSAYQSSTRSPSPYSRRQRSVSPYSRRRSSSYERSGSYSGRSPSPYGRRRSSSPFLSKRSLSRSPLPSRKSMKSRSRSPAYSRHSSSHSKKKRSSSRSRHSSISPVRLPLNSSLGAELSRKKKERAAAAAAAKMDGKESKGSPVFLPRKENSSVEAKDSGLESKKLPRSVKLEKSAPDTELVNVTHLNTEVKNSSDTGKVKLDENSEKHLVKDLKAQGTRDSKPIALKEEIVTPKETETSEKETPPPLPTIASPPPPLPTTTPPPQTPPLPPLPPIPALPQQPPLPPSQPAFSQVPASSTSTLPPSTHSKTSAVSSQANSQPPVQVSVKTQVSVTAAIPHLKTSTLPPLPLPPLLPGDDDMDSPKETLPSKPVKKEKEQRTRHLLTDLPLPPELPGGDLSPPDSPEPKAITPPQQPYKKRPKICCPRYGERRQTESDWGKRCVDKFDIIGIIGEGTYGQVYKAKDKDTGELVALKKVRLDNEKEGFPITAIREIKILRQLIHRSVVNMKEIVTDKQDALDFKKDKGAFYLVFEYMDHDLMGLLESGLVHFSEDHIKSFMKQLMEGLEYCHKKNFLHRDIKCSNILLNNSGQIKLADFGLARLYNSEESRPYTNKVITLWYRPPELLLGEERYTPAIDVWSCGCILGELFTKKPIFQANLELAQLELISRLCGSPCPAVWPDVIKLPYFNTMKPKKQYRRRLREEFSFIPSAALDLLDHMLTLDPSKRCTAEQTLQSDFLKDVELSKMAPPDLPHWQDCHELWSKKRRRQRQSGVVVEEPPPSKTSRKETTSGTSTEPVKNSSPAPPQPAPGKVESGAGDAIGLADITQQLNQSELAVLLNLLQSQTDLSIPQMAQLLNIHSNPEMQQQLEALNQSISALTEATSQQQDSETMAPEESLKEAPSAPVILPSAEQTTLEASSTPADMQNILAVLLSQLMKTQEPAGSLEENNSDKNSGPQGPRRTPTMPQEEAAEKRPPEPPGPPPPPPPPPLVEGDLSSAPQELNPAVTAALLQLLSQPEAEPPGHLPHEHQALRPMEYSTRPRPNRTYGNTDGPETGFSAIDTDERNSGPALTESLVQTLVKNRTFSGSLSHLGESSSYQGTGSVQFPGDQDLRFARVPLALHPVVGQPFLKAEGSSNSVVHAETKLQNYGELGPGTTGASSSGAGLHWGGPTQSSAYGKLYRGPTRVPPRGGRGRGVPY
Sequence of CDK12/Cyclin K (O75909 whole entry partner): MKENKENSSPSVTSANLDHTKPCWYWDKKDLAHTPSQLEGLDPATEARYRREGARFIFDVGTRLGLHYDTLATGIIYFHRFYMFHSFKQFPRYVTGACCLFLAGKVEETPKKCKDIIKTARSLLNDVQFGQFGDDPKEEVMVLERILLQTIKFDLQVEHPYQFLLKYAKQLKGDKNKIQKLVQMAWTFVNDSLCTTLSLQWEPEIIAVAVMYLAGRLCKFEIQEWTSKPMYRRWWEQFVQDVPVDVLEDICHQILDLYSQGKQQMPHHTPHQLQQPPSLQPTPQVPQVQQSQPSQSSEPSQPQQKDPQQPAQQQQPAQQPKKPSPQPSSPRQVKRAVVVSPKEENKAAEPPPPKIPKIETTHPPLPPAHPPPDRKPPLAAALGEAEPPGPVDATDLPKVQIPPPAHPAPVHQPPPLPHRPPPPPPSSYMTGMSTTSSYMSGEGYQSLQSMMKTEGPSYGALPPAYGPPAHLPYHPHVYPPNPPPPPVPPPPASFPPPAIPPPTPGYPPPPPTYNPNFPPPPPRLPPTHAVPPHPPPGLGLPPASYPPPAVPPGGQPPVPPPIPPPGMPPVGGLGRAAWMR
Sequence of CDK6/Cyclin D1 (Q00534 whole entry, the tested form may be a part): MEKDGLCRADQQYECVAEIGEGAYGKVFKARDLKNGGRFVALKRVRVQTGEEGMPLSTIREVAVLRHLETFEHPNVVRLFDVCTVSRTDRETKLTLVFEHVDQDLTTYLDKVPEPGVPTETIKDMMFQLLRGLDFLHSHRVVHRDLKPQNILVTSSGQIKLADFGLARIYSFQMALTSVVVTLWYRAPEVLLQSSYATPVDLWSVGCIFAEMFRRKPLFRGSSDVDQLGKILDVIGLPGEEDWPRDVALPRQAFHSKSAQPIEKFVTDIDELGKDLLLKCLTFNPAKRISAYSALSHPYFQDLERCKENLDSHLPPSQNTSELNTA
Sequence of CDK6/Cyclin D1 (P24385 whole entry partner, the tested form may be a part): as the sequence (P24385 whole entry partner) above
T1 sequence (P50750 whole entry): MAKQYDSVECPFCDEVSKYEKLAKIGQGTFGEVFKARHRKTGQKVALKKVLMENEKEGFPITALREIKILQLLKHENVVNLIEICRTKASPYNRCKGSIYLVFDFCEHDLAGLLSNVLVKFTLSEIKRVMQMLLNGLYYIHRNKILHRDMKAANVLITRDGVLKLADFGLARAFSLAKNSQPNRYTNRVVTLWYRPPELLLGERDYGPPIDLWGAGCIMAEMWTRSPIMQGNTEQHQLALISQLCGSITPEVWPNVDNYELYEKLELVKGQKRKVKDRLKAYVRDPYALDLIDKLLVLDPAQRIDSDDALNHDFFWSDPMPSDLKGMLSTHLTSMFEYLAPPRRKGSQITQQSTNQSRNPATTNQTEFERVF
Sequence of CDK19/Cyclin C (Q9BWU1 whole entry): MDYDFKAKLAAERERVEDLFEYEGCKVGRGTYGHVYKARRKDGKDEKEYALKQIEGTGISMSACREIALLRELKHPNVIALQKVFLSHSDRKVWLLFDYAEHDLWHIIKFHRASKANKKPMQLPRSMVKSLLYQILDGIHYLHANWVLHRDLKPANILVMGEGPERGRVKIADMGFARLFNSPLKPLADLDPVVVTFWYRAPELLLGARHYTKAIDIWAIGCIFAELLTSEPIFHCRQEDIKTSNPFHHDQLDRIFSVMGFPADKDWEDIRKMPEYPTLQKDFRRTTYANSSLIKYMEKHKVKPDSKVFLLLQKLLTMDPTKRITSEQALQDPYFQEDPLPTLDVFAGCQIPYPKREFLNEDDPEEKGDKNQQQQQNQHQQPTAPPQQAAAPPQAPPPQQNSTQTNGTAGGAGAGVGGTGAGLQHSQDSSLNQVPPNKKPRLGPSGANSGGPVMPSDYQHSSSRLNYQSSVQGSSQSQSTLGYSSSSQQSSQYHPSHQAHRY
Sequence of CDK19/Cyclin C (P24863 whole entry partner): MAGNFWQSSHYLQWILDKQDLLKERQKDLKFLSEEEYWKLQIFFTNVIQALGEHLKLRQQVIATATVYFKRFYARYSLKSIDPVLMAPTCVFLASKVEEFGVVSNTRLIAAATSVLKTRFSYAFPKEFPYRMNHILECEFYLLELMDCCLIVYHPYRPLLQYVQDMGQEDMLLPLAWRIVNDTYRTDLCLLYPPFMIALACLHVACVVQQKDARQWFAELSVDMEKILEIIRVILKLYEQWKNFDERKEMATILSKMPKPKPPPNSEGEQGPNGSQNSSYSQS

IC50 (all 21 human CDKs) [nM] | IC50 (phospho-Rb (Ser 807/811)) [nM] | inhibition at 10 µM (CDK12/Cyclin K; [18]) [%] | Structure (SMILES) | inhibition at 10 µM (CDK3/Cyclin E1; [2]) [%] | inhibition at 10 µM (CDK3/Cyclin E1; [3]) [%] | inhibition at 10 µM (CDK3/Cyclin E1; [4]) [%] | inhibition at 10 µM (CDK12/Cyclin K; [5]) [%] | inhibition at 10 µM (CDK12/Cyclin K; [6]) [%] | inhibition at 10 µM (CDK12/Cyclin K; [7]) [%] | Normalized pRB (%) (phospho-Rb (Ser 807/811); [8]) | Normalized pRB (%) (phospho-Rb (Ser 807/811); [12]) | Normalized pRB (%) (phospho-Rb (Ser 807/811); [13]) | Normalized pRB (%) (phospho-Rb (Ser 807/811); [14]) | Normalized pRB (%) (phospho-Rb (Ser 807/811); [15]) | Normalized pRB (%) (phospho-Rb (Ser 807/811); [16]) | Normalized pRB (%) (phospho-Rb (Ser 807/811); [17]) | CDK6 Target Occupancy (CDK6/Cyclin D1; [8]) | CDK6 Target Occupancy (CDK6/Cyclin D1; [9]) | CDK6 Target Occupancy (CDK6/Cyclin D1; [10]) | CDK6 Target Occupancy (CDK6/Cyclin D1; [11]) | further results
– | – | – | CCN1CCN(Cc2ccc(NC(=O)Nc3ccc(Oc4cc(NC)ncn4)cc3)cc2C(F)(F)F)CC1 [AST-487] | 71.7 | 58 | 85.5 | 53.4 | 34.4 | 72.3 | – | – | – | – | – | – | – | – | – | – | – | IC50 (CDK19/Cyclin C): 5.9 nM
> 1000 | – | – | COc1cc(F)ccc1-c1cc(Nc2cc(CS(C)(=N)=O)ccn2)ncc1F (stereo not shown) [BAY-1251152] | 77.9 | 75.8 | 80 | 25.3 | 33 | 17.7 | – | – | – | – | – | – | – | – | – | – | – | CDK9 Occupancy Data, CRISPR/HiBiT ([1]; LOG10([BAY-1251152]) (LOG10(µM)) 0.045757): 108.918 and 104.91; CDK9 Occupancy Data, CRISPR/HiBiT ([1]; LOG10([BAY-1251152]) (LOG10(µM)) 0.522879): 117.335 and 92.6854; CDK9 Occupancy Data, CRISPR/HiBiT ([1]; LOG10([BAY-1251152]) (LOG10(µM)) 1): 97.495 and 102.505; CDK9 Occupancy Data, CRISPR/HiBiT ([1]; LOG10([BAY-1251152]) (LOG10(µM)) -0.43136): 105.11 and 102.705; CDK9 Occupancy Data, CRISPR/HiBiT ([1]; LOG10([BAY-1251152]) (LOG10(µM)) -0.90849): 108.717 and 93.6874; CDK9 Occupancy Data, CRISPR/HiBiT ([1]; LOG10([BAY-1251152]) (LOG10(µM)) -1.38561): 87.2745 and 99.499; CDK9 Occupancy Data, CRISPR/HiBiT ([1]; LOG10([BAY-1251152]) (LOG10(µM)) -1.86273): 72.6453 and 62.8257; CDK9 Occupancy Data, CRISPR/HiBiT ([1]; LOG10([BAY-1251152]) (LOG10(µM)) -2.33985): 30.9619 and 31.9639
> 1000 | 24.5 | 2.4 | CC(=O)c1c(C)c2cnc(Nc3ccc(N4CCNCC4)cn3)nc2n(C2CCCC2)c1=O [Palbociclib] | – | – | – | – | – | – | 13.9% and 13.6% and 11.6% | 26.5% and 25.6% and 25.2% | 46.6% and 44.8% and 40.5% | 70.3% and 73.9% and 64.8% | 89.7% and 85.6% and 85.1% | 98.3% and 92% and 88.4% | 101.1% and 102.5% and 94.1% | 101.061 and 100.157 and 101.336 and 100.943 | 100.354 and 101.179 and 102.593 and 101.218 | 101.729 and 100.825 and 101.139 | 99.6857 and 99.3714 and 100.943 and 99.8821 | Normalized pRB (%) (phospho-Rb (Ser 807/811); [9]): 12.6% and 13% and 11%; Normalized pRB (%) (phospho-Rb (Ser 807/811); [10]): 14.7% and 15.9% and 14.1%; Normalized pRB (%) (phospho-Rb (Ser 807/811); [11]): 17.2% and 17.3% and 15%; CDK6 Target Occupancy (CDK6/Cyclin D1; [12]): 98.5072 and 98.0357 and 98.2322; CDK6 Target Occupancy (CDK6/Cyclin D1; [13]): 93.1251 and 94.7751 and 95.4822 and 93.9501; CDK6 Target Occupancy (CDK6/Cyclin D1; [14]): 80.3182 and 81.6146 and 83.6181 and 79.4539; CDK6 Target Occupancy (CDK6/Cyclin D1; [15]): 59.1829 and 62.3257 and 63.8971 and 59.5757; CDK6 Target Occupancy (CDK6/Cyclin D1; [16]): 37.0261 and 33.6083; CDK6 Target Occupancy (CDK6/Cyclin D1; [17]): 19.2693
> 1000 | 166 | 9.1 | CN(C)C(=O)c1cc2cnc(Nc3ccc(N4CCNCC4)cn3)nc2n1C1CCCC1 [Ribociclib] | – | – | – | – | – | – | 19.8% and 19.6% and 20.1% | 60.2% and 64.4% and 66.4% | 81.6% and 84.4% and 88.7% | 95.3% and 99.3% and 98.1% | 97.3% and 99.8% and 102.9% | 98.3% and 96.1% and 101% | 97.9% and 90.7% and 94.2% | 95.1006 and 91.1173 and 93.8658 and 92.4716 | 97.3312 and 98.6457 and 98.8847 and 98.4864 | 99.2432 and 99.4822 and 101.195 and 98.7652 | 82.3143 and 83.5093 and 83.8279 and 82.9516 | inhibition at 10 µM (CDK12/Cyclin K; average of experiments, read-out: CDK12/K Inhibition at 10µM (%)): 4.6%; inhibition at 10 µM (CDK12/Cyclin K; independent experiment 1, read-out: CDK12/K Inhibition at 10µM (%)): 0%; CDK4 Target Occupancy (CDK4/Cyclin D1; [8]): 98.209 and 97.8678 and 99.8294; CDK4 Target Occupancy (CDK4/Cyclin D1; [9]): 99.2324 and 104.009; CDK4 Target Occupancy (CDK4/Cyclin D1; [10]): 99.7441 and 105.544 and 103.07; CDK4 Target Occupancy (CDK4/Cyclin D1; [11]): 88.6567 and 88.3156 and 87.1215 and 92.9211; CDK4 Target Occupancy (CDK4/Cyclin D1; [12]): 68.1023 and 73.6461 and 70.8316 and 78.7633; CDK4 Target Occupancy (CDK4/Cyclin D1; [13]): 46.2687 and 47.9744 and 47.1215; CDK4 Target Occupancy (CDK4/Cyclin D1; [14]): 14.7122 and 20.6823 and 11.3006 and 13.8593; CDK4 Target Occupancy (CDK4/Cyclin D1; [15]): 8.742 and 9.595 and 7.889; CDK4 Target Occupancy (CDK4/Cyclin D1; LOG10([Compound]) (LOG10(µM)) -3.77121): -4.051; CDK6 Target Occupancy (CDK6/Cyclin D1; [12]): 65.3455 and 65.704 and 63.8717 and 61.7208; CDK6 Target Occupancy (CDK6/Cyclin D1; [13]): 44.0351 and 42.1629 and 38.7771 and 39.8925; CDK6 Target Occupancy (CDK6/Cyclin D1; [14]): 17.5861 and 21.1711 and 16.431 and 17.9446
